These are literature values, as cited in patent US20090202609A1, “MEDICAL DEVICE WITH COATING COMPOSITION” (priority 2008, published 2009).

In one series the test system is bacteria. To be noted: effective systemic concentration.
For series [1] the following is noted: systemic.

`NC[C@H]1O[C@H](O[C@H]2[C@H](O)[C@@H](O[C@H]3O[C@H](CO)[C@@H](O)[C@H](N)[C@H]3O)[C@H](N)C[C@@H]2N)[C@H](N)C[C@@H]1O` [tobramycin]: the “effective concentration to actively control bacteria” value in the series on bacteria was at most 4 µg/mL. In addition, the system-wide toxic concentration result in series [1] was “about 400 mcg/ml”.
